According to PubChem BioAssay AID1996:
Converted amounts (≈) assume the structure as drawn.

Details: buffer; pH 7.4; 200.0 µM

Structure (SMILES)	solubility kinetic [µg/mL]
CC(=O)Nc1cccc(C(=O)OCCCOc2ccc(F)cc2)c1	2.6 (≈ 7.85 µM)
CCN(CC)c1ccc(/C=C(/C#N)C(=O)NC(C)C)o1	38.6 (≈ 140 µM)
CCCCN(C(=O)Oc1ccccc1)C1CCS(=O)(=O)C1 (stereo unspecified)	> 46.7
O=C(COC(=O)COc1ccc(Cl)cc1Br)NC1CC1	> 54.4
CC1(C)NC(=O)N(CCC(=O)Nc2cc(C(F)(F)F)ccc2Cl)C1=O	> 56.7
CCOC(=O)C(C)Sc1nc(N2CCOCC2)c2c(c1C#N)CC(C)(C)OC2 (stereo unspecified)	38.8 (≈ 95.7 µM)
N#Cc1cccc2cccc(S(=O)(=O)N3CCOCC3)c12	14.9 (≈ 49.3 µM)
CC(C)Cc1ccc(C(=O)Nc2ccc(Cc3ccncc3)cc2)o1	8.7 (≈ 26 µM)
Nc1ncnc2nc[nH]c12	> 20.3
Cc1cc(NC(=O)c2ccc(F)cc2)ccc1NC(=O)c1ccco1	3.4 (≈ 10 µM)
NC(=O)NC(Cc1ccccc1)C(=O)NNC(=O)COc1ccccc1Cl (stereo unspecified)	> 58.6
O=C(CN1C(=O)S/C(=C\c2ccccn2)C1=O)Nc1ccc(F)cc1	0.9 (≈ 2.52 µM)
CN(C)c1ccc(/C=C/C(=O)c2cccnc2)cc1	9.5 (≈ 37.7 µM)
Cn1c(N)c(Sc2ccccc2[N+](=O)[O-])c(=O)n(C)c1=O	41.5 (≈ 135 µM)
O=C(NC1CCS(=O)(=O)C1)c1ccccc1Cl (stereo unspecified)	> 41.1
Cc1cc(Nc2ccc(C(=O)O)cc2)nc(N)n1	28 (≈ 115 µM)
Cc1ccc(C2=NC3(CCCC3)NC2=S)cc1	2.2 (≈ 9 µM)
CCN/C=C(\C#N)S(=O)(=O)c1ccc(Br)cc1	34.8 (≈ 110 µM)
N#Cc1cccc(NC(=O)COC(=O)c2ccc[n+]([O-])c2)c1	> 44.6
O=C(NCCc1ccc(Cl)cc1)c1cccs1	> 39.9
O=C(Nc1cccc(Cl)c1)OC1CN2CCC1CC2 (stereo unspecified)	3.6 (≈ 12.8 µM)
Nc1ccccc1C(=O)NCc1ccco1	> 32.4
C=CCNC(=S)N1CCc2[nH]c3ccccc3c2C1	5.5 (≈ 20.3 µM)
Cc1cc(C(=O)NC2CCCCCCC2)ccc1[N+](=O)[O-]	1.1 (≈ 3.79 µM)
O=C(NCc1ccccn1)Nc1cccc(Cl)c1Cl	> 44.4

Structure (SMILES)	solubility kinetic [µg/mL]
CCOC(=O)N1CCN(C(=O)c2ccccc2NC(C)=O)CC1	> 47.9
Cc1cc2ccccn2c1C(=O)c1ccccc1Br	8.1 (≈ 25.8 µM)
CCOc1ccccc1NC(=O)NCc1cccnc1	> 40.7
CC(=O)Nc1ccc(NC2=CC(=O)c3ccccc3C2=O)cc1	1.1 (≈ 3.59 µM)
CCOC(=O)C1CCN(C(=O)c2[nH]c3ccc(OC)cc3c2C)CC1	48.3 (≈ 140 µM)
O=C(Cc1c(Cl)cccc1Cl)Nc1ccncc1	> 42.2
COc1ccc(CC(=O)Nc2ccccc2N2CCCC2)cc1	41.6 (≈ 134 µM)
Cc1ccc2oc(C(=O)N(C)Cc3ccon3)c(C)c2c1	39.2 (≈ 138 µM)
CC(C)c1ccc(NC(=S)Nc2ccc3[nH]c(=O)[nH]c3c2)cc1	16.7 (≈ 51.2 µM)
O=C(CN1C(=O)c2ccccc2S1(=O)=O)NCc1cccs1	22.2 (≈ 66 µM)
CNc1nc(N)c([N+](=O)[O-])c(NC2CCCCC2)n1	1.7 (≈ 6.38 µM)
O=C(NC1CCCCC1)C(=O)c1c[nH]c2ccccc12	1.1 (≈ 4.07 µM)
O=C(Nc1ccc(F)cc1)/C(=C1/CCCCCN1)[N+](=O)[O-]	> 44
O=C(NC(=S)Nc1ccccc1[N+](=O)[O-])c1ccccc1Cl	1.2 (≈ 3.57 µM)
Cc1cc(C(=O)Nc2ccccc2N2CCOCC2)no1	19.2 (≈ 66.8 µM)
CC1(C2CC(C(F)(F)F)n3nc(C(=O)O)cc3N2)CC1 (stereo unspecified)	> 43.4
Cc1ccn2c(C(=O)NN=C3CCCCCCC3)c(C)nc2c1	> 46.9
Cc1cccnc1NC(=O)C1COc2ccccc2O1 (stereo unspecified)	40.1 (≈ 148 µM)
CCC(C)Nc1cc(C)c(C#N)c2nc3ccccc3n12 (stereo unspecified)	3.7 (≈ 13.3 µM)
O=C(NN1CCOCC1)c1cccc(F)c1	> 33.6
O=[N+]([O-])c1ccc(OCc2cnc(Cl)s2)cc1	5.6 (≈ 20.7 µM)
N#CCc1ccc(OC(=O)c2ccncc2)cc1	> 35.7
CCOC(=O)N1CCN(C(=O)Nc2ccccc2)CC1	> 41.6
Cc1ccccc1C(=O)NCCNC(=O)c1ccco1	> 40.8
C/C(=N/OC(=O)c1ccc(Cl)cc1Cl)c1oc(C)nc1C	1.9 (≈ 5.81 µM)

Structure (SMILES)	solubility kinetic [µg/mL]
Cc1cc(N2CCCC2)ccc1C=C(C#N)C#N	0.5 (≈ 2.11 µM)
COc1ccc(C(=O)NCC(=O)N2CCCCC2)cc1OC	> 46
COc1cccc(NC(=O)Nc2ccc(Br)cn2)c1	< 0.2
COc1cccc(Oc2cc(Cl)nc(N)n2)c1	15 (≈ 59.6 µM)
O=C(COC(=O)c1ccc([N+](=O)[O-])o1)NCCc1ccccc1	> 47.7
Cc1ccc(N2CCN(C(=O)NC3CCCCC3)CC2)c(C)c1	1.6 (≈ 5.07 µM)
CN(C)C1(CNC(=O)Nc2ccccc2)CCCCC1	> 41.3
O=C(O)CCCCCCCCCC[n+]1ccccc1.[Br-]	47.9
CCOc1ccc(C(=O)NCC(=O)N2CCCC2)cc1	> 41.5
O=C(O)CCCC(=O)N1CCN(c2ncccn2)CC1	> 41.7
CSc1sc(C(=O)N2CCc3ccccc32)cc1S(=O)(=O)C(C)C	< 0.8
Cc1c(NS(=O)(=O)c2cccc(C(=O)N3CCC(C)CC3)c2)c(=O)n(-c2ccccc2)n1C	> 70.3
O=C(Nc1cccc(F)c1)N1CCN(C(=O)c2ccco2)CC1	> 47.6
Nc1ncnc2c1nc(Br)n2[C@@H]1O[C@@H]2COP(=O)([O-])O[C@H]2[C@H]1O.[Na+]	> 64.5
CCc1nnc(NC(=O)C2CCCO2)s1 (stereo unspecified)	> 34.1
[Cl-].c1ccc(Cn2c[n+](Cc3ccccc3)cn2)cc1	> 42.9
COc1cc(SC)ccc1C(=O)Nc1ccccn1	9 (≈ 32.8 µM)
Cc1ccc2nc(-c3ccccc3)c(CN3CCOCC3)n2c1	> 46.1
COc1ccccc1N(CC(=O)NC1CCCCC1C)S(=O)(=O)c1cccs1 (stereo unspecified)	2 (≈ 4.73 µM)
O=C(O/N=C1\CCS(=O)(=O)c2sccc21)c1ccc(F)cc1	1.2 (≈ 3.54 µM)
COc1ccc(F)cc1S(=O)(=O)NCCN1CCOCC1	> 47.8
COC(=O)c1ccc(NC(=S)NC(=O)c2cccnc2)cc1	3.7 (≈ 11.7 µM)
CCOc1ccc(N2C(=O)CC(Cc3ccccc3OC)C2=O)cc1 (stereo unspecified)	4.9 (≈ 14.4 µM)
CSc1ccc(CN2CCSCC2)cc1	17 (≈ 71 µM)
Cc1cc(C(=O)CSc2nc(N)cc(N)n2)c(C)n1CC1CCCO1 (stereo unspecified)	> 54.2

Structure (SMILES)	solubility kinetic [µg/mL]
O=C(CC1CCC1)NC(c1ccccc1)c1ccccc1	6.5 (≈ 23.3 µM)
Cc1ccccc1-c1nc2cc(NC(=O)C3CC3)ccc2o1	0.8 (≈ 2.74 µM)
Cl.NCC1CC2c3ccccc3C1c1ccccc12 (stereo unspecified)	> 40.8
CSc1ccccc1NC(=O)CN(C)CC(=O)Nc1ccc(S(=O)(=O)N2CCCC2)cc1	1.3 (≈ 2.73 µM)
Cc1ccc(C2Nc3ccccc3C(=O)N2CCN2CCNC2=O)cc1 (stereo unspecified)	> 52.6
CN(C)c1nc(N)c([N+](=O)[O-])c(N2CCCCCC2)n1	39.7 (≈ 142 µM)
COC(=O)c1ccc(N=CC2=C(O)CC(c3ccccc3)CC2=O)cc1 (stereo unspecified)	2.1 (≈ 6.01 µM)
CCCN(CCC)CC(O)COc1ccc2c(c1)OCO2.Cl (stereo unspecified)	45.5
CCc1nc(SCC(=O)Nc2cccc3ccccc23)[nH]c(=O)c1C	1.8 (≈ 5.09 µM)
CN1C(=O)NC(c2ccc(O)cc2)C2=C1CN(c1ccccc1)C2=O (stereo unspecified)	7 (≈ 20.9 µM)
O=c1[nH]c(=S)n(-c2ccccc2F)c(O)c1C=NCCN1CCNCC1	55.3 (≈ 147 µM)
CCc1c(C)nc(N2CCN(c3cccc(OC)c3)CC2)[nH]c1=O	15.8 (≈ 48.1 µM)
CCc1ccc(OCCNC(=O)c2ccco2)cc1	> 38.9
Cc1ccc(C(=O)Nc2cccc3ccccc23)o1	25.9 (≈ 103 µM)
N/C(=N\OC(=O)c1ccccc1)c1ccncc1	34.8 (≈ 144 µM)
COc1ccc(Cl)cc1C(=O)NC(=S)Nc1nc(C)cc(C)n1	0.4 (≈ 1.14 µM)
CC1CN(c2ccccc2)c2nc3c(c(=O)[nH]c(=O)n3C)n2C1 (stereo unspecified)	> 46.7
O=S(=O)(Nc1cc(F)ccc1F)c1cccc2nonc12	> 46.7
CCCN1C2CCCC1CC(NC(=O)c1cccc(OC)c1)C2 (stereo unspecified)	> 47.5
Cc1cccc(C(=O)NCCC(=O)Nc2ccc(C#N)cc2)c1	1.3 (≈ 4.23 µM)
Cc1cc(SCC#N)nc2ccccc12	14.6 (≈ 68.1 µM)
CCCC(=O)N1CCC(O)(c2cccc(F)c2)CC1	> 39.8
CN(c1ccccc1)c1nc(N)c([N+](=O)[O-])c(N2CCCCCC2)n1	2.6 (≈ 7.59 µM)
C=CCN1C(=O)C2C3CC(=O)C(c4ccccc43)C2C1=O (stereo unspecified)	> 42.2
Cc1ccc([N+](=O)[O-])cc1NC(=O)/C=C/C(=O)O	> 37.5

Structure (SMILES)	solubility kinetic [µg/mL]
COc1ccccc1NC(=S)NC(NC(C)=O)C(Cl)(Cl)Cl (stereo unspecified)	19 (≈ 51.3 µM)
Cc1ccc(/C=C2/C(=O)ON=C2c2ccccc2)o1	38 (≈ 150 µM)
Cc1ccc(OCC(=O)Nc2cc(C)on2)c([N+](=O)[O-])n1	18 (≈ 61.6 µM)
COc1cccc(CNC(=O)CNC(=O)c2cccs2)c1	> 45.7
Cc1nc2ccccc2nc1Nc1cccc(Cl)c1	20.2 (≈ 74.9 µM)
COc1ccc(S(=O)(=O)/C(C#N)=C/Nc2cccc(F)c2)cc1	< 0.4
Cc1occc1C(=O)N1CCN(c2ccc(Cl)cc2)CC1	43.6 (≈ 143 µM)
CCC(CC)C(=O)NCc1ccc(OC)cc1	32.7 (≈ 139 µM)
Cc1ccccc1CNC(=O)Nc1ccc(Cl)cc1	0.3 (≈ 1.09 µM)
CC1CCCCN1Cc1cccnc1.O=C(O)C(=O)O (stereo unspecified)	> 42
COc1ccc(NC(=S)NCCCN2CCCC2)cc1	> 44
COc1cc(OC)c(OC)cc1CNCc1ccc2c(c1)OCO2	> 49.7
Cc1ccccc1C(=O)c1c[nH]c(C(=O)N=CN(C)C)c1	> 42.5
CCCCOc1ccc(Cc2c(O)nc(SC)[nH]c2=O)cc1	20 (≈ 62.4 µM)
Cc1ccc(-c2noc(CCCC(=O)NCC3CCCO3)n2)cc1 (stereo unspecified)	42.2 (≈ 128 µM)
Cc1ccc(C(=O)NC2CC3CCC(C2)N3)cc1 (stereo unspecified)	> 36.7
CCCCCNC(=O)C1c2ccccc2Oc2ccccc21	< 0.6
CN1C(=O)NC(=O)/C(=C/c2ccc([N+](=O)[O-])o2)C1=O	> 39.8
CCC1CN(C(=O)NCc2ccc(C)cc2)c2cc(C)ccc2O1 (stereo unspecified)	0.5 (≈ 1.54 µM)
O=c1[nH]c(O)c(C=Nc2ccc(Cl)c(C(F)(F)F)c2)c(=O)[nH]1	1.7 (≈ 5.1 µM)
COc1cc(C(=O)Nc2cccc(NC(=O)c3cccs3)c2)cc(OC)c1OC	13.5 (≈ 32.7 µM)
